{
  "source": "paper PMC8379669",
  "about": "(Computational and Structural Biotechnology Journal, 2021)",
  "data": [
    {"target": "GluN2B containing NMDAR (GluN1/GluN2B) in HEK-293 cells (Homo sapiens, UniProt Q05586+Q13224)", "sequence (Q13224 27-1484, species assumed, other chains not shown)": "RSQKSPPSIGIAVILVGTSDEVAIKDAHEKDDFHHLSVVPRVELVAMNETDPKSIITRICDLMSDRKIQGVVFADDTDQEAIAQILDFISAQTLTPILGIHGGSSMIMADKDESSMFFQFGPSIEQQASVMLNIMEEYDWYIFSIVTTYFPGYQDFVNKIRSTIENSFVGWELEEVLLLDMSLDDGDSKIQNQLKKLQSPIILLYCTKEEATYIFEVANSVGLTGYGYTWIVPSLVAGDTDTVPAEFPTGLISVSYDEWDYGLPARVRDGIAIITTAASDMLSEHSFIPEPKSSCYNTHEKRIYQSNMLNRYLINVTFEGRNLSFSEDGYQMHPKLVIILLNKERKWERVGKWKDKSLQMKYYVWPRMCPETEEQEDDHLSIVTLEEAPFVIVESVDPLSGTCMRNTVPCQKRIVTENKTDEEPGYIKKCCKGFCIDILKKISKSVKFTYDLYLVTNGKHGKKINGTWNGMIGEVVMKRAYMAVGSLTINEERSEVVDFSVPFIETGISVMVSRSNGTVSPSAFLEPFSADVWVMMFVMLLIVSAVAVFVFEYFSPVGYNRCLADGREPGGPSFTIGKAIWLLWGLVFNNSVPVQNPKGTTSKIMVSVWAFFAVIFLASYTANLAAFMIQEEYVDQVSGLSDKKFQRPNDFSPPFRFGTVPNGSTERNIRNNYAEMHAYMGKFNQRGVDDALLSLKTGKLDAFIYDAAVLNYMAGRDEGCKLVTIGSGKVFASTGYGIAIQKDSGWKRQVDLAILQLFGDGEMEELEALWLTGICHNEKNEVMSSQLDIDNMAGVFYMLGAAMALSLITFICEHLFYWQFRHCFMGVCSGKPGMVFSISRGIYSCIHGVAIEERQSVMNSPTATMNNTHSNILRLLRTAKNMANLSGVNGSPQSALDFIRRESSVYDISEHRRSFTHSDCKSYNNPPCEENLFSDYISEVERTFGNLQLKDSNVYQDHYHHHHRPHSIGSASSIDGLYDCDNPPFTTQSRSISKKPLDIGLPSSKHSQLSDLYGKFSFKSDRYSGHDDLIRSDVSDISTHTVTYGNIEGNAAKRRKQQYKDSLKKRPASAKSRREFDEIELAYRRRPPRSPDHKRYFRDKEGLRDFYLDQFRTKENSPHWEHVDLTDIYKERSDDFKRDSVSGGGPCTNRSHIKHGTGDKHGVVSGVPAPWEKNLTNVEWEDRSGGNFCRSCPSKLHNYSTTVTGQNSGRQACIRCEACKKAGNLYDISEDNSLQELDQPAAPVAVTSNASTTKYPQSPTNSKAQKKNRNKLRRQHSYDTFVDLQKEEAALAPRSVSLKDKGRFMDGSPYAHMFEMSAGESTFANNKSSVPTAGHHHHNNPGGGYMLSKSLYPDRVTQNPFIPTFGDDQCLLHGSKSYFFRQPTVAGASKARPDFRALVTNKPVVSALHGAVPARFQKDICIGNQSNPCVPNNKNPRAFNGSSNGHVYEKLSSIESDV", "experiment": "Cell-based NMDAR activity assay", "conditions": "not given", "units": {"IC50": "µM"}, "values": [
      {"smiles": "Nc1c2c(nc3cc(-c4ccc(C(F)(F)F)cc4)ccc13)CCCC2", "note": "[Compound 211, 6-(4-(trifluoromethyl)phenyl)-1,2,3,4-tetrahydroacridin-9-amine]", "IC50": "0.49 ± 0.14"},
      {"smiles": "Nc1c2c(nc3cc(-c4ccoc4)ccc13)CCCC2", "note": "[Compound 212, 6-(furan-3-yl)-1,2,3,4-tetrahydroacridin-9-amine]", "IC50": "16.4 ± 2.76"},
      {"smiles": "Nc1c2c(nc3cc(-c4cccnc4)ccc13)CCCC2", "note": "[Compound 214, 6-(pyridin-3-yl)-1,2,3,4-tetrahydroacridin-9-amine]", "IC50": "38.8 ± 9.64"}
    ]},
    {"target": "GluN2B containing NMDAR (GluN1/GluN2B) in HEK-293 cells (Homo sapiens, UniProt Q05586+Q13224)", "experiment": "Cell-based NMDAR activity assay", "conditions": "5 μM, with NMDAR agonists and Ca2+ (Fig. 2B)", "values": [
      {"smiles": "Nc1c2c(nc3cc(-c4ccc(C(F)(F)F)cc4)ccc13)CCCC2", "note": "[Compound 211, 6-(4-(trifluoromethyl)phenyl)-1,2,3,4-tetrahydroacridin-9-amine]", "number of punctate cells": "Reduction in the number of punctate cells"}
    ]},
    {"target": "GluN2B containing NMDAR (GluN1/GluN2B) in HEK-293 cells (Homo sapiens, UniProt Q05586+Q13224)", "experiment": "Cell-based NMDAR activity assay", "conditions": "HEK293, read-out: inhibition of NMDAR activity", "units": {"inhibition at 50 µM": "%", "inhibition at 100 µM": "%"}, "values": [
      {"smiles": "Nc1c2c(nc3cc(-c4ccc(C(F)(F)F)cc4)ccc13)CCCC2", "note": "[Compound 211, 6-(4-(trifluoromethyl)phenyl)-1,2,3,4-tetrahydroacridin-9-amine]", "inhibition at 50 µM": "~100", "inhibition at 100 µM": "~100"}
    ]},
    {"target": "GluN2B containing NMDAR (GluN1/GluN2B) in HEK-293 cells (Homo sapiens, UniProt Q05586+Q13224)", "experiment": "Cell-based NMDAR activity assay", "conditions": "based on NMDAR IC50", "values": [
      {"smiles": "Nc1c2c(nc3cc(-c4ccc(C(F)(F)F)cc4)ccc13)CCCC2", "note": "[Compound 211, 6-(4-(trifluoromethyl)phenyl)-1,2,3,4-tetrahydroacridin-9-amine]", "category of NMDAR inhibitor": "potent (potent (IC50 < 5 μM))"}
    ]},
    {"target": "GluN2B containing NMDAR (GluN1/GluN2B) in HEK-293 cells (Homo sapiens, UniProt Q05586+Q13224)", "experiment": "Cell-based NMDAR activity assay", "conditions": "initial screening studies", "values": [
      {"smiles": "CCOC(=O)C1CCc2nc3ccccc3c(N)c2C1", "note": "(centres unmarked) [Compound 16, ethyl 9-amino-1,2,3,4-tetrahydroacridine-2-carboxylate]", "antagonism of NMDAR activity, in words": "could not effectively block NMDAR activity"},
      {"smiles": "NNC(=O)C1CCc2nc3ccccc3c(N)c2C1", "note": "(centres unmarked) [Compound 17, 9-amino-1,2,3,4-tetrahydroacridine-2-carbohydrazide]", "antagonism of NMDAR activity, in words": "could not effectively block NMDAR activity"},
      {"smiles": "Nc1c2c(nc3cc(-c4ccc(C(F)(F)F)cc4)ccc13)CCCC2", "note": "[Compound 211, 6-(4-(trifluoromethyl)phenyl)-1,2,3,4-tetrahydroacridin-9-amine]", "antagonism of NMDAR activity, in words": "effective in antagonizing NMDAR activity"},
      {"smiles": "Nc1c2c(nc3cc(-c4ccoc4)ccc13)CCCC2", "note": "[Compound 212, 6-(furan-3-yl)-1,2,3,4-tetrahydroacridin-9-amine]", "antagonism of NMDAR activity, in words": "effective in antagonizing NMDAR activity"},
      {"smiles": "Nc1c2c(nc3cc(-c4cccnc4)ccc13)CCCC2", "note": "[Compound 214, 6-(pyridin-3-yl)-1,2,3,4-tetrahydroacridin-9-amine]", "antagonism of NMDAR activity, in words": "effective in antagonizing NMDAR activity"}
    ]},
    {"system": "NMDAR", "experiment": "not given", "conditions": "read-out: IC50 NMDAR, reported value; cited from earlier work", "units": {"IC50": "µM"}, "values": [
      {"smiles": "Nc1c2c(nc3ccccc13)CCCC2", "note": "[tacrine, reference compound]", "IC50": "193 ± 33"}
    ]},
    {"system": "HepG2 cells", "experiment": "MTT cytotoxicity assay on HepG2 cells", "conditions": "10-300 μM, 24 h", "values": [
      {"smiles": "Nc1c2c(nc3cc(-c4ccc(C(F)(F)F)cc4)ccc13)CCCC2", "note": "[Compound 211, 6-(4-(trifluoromethyl)phenyl)-1,2,3,4-tetrahydroacridin-9-amine]", "cytotoxicity on HepG2 cells, in words": "slight toxicity"},
      {"smiles": "Nc1c2c(nc3cc(-c4ccoc4)ccc13)CCCC2", "note": "[Compound 212, 6-(furan-3-yl)-1,2,3,4-tetrahydroacridin-9-amine]", "cytotoxicity on HepG2 cells, in words": "non-toxic"},
      {"smiles": "Nc1c2c(nc3cc(-c4cccnc4)ccc13)CCCC2", "note": "[Compound 214, 6-(pyridin-3-yl)-1,2,3,4-tetrahydroacridin-9-amine]", "cytotoxicity on HepG2 cells, in words": "non-toxic"}
    ]},
    {"system": "HepG2 cells", "experiment": "MTT cytotoxicity assay on HepG2 cells", "conditions": "24 h", "values": [
      {"smiles": "Nc1c2c(nc3ccccc13)CCCC2", "note": "[tacrine, reference compound]", "concentration up to which safe on HepG2 cells": "up to 50 µM"}
    ]},
    {"system": "HepG2 cells", "experiment": "MTT cytotoxicity assay on HepG2 cells", "conditions": "HepG2, 300 µM, 24 h", "units": {"reduction in cell viability": "%"}, "values": [
      {"smiles": "Nc1c2c(nc3ccccc13)CCCC2", "note": "[tacrine, reference compound]", "reduction in cell viability": "~50"}
    ]},
    {"target": "BChE from equine serum (Equus caballus, UniProt P81908)", "sequence (P81908 whole entry)": "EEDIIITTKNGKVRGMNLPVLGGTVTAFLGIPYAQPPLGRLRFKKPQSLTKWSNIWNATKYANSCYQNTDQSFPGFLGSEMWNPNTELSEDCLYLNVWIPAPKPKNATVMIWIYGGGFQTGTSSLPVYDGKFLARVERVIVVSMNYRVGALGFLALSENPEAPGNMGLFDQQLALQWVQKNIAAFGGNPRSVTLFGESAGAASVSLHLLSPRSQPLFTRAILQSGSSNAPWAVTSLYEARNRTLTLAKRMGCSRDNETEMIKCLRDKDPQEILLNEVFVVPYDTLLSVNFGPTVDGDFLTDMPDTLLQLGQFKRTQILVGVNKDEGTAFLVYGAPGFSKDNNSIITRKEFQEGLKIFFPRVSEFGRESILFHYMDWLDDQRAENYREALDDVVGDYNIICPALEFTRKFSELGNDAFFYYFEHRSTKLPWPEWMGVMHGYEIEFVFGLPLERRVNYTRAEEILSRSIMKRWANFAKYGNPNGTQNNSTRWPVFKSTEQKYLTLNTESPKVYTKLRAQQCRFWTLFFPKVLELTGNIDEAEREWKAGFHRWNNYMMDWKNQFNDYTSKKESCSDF", "experiment": "biochemical", "assay_type": "biochemical", "conditions": "not given", "units": {"IC50": "µM"}, "values": [
      {"smiles": "CCOC(=O)C1CCc2nc3cc(Br)ccc3c(N)c2C1", "note": "(centres unmarked) [Compound 5, Ethyl 9-amino-6-bromo-1,2,3,4-tetrahydroacridine-2-carboxylate]", "IC50": "7.38 ± 0.21"},
      {"smiles": "NNC(=O)C1CCc2nc3cc(Br)ccc3c(N)c2C1", "note": "(centres unmarked) [Compound 8, 9-Amino-6-bromo-1,2,3,4-tetrahydroacridine-2-carbohydrazide]", "IC50": "20.4 ± 2.11"},
      {"smiles": "CCOC(=O)C1CCc2nc3ccccc3c(N)c2C1", "note": "(centres unmarked) [Compound 16, ethyl 9-amino-1,2,3,4-tetrahydroacridine-2-carboxylate]", "IC50": "3.82 ± 0.25"},
      {"smiles": "Nc1c2c(nc3cc(-c4ccc(C(F)(F)F)cc4)ccc13)CCCC2", "note": "[Compound 211, 6-(4-(trifluoromethyl)phenyl)-1,2,3,4-tetrahydroacridin-9-amine]", "IC50": "3.97 ± 0.71"},
      {"smiles": "Nc1c2c(nc3cc(-c4ccoc4)ccc13)CCCC2", "note": "[Compound 212, 6-(furan-3-yl)-1,2,3,4-tetrahydroacridin-9-amine]", "IC50": "0.99 ± 0.05"},
      {"smiles": "Nc1c2c(nc3cc(-c4cccnc4)ccc13)CCCC2", "note": "[Compound 214, 6-(pyridin-3-yl)-1,2,3,4-tetrahydroacridin-9-amine]", "IC50": "0.82 ± 0.09"}
    ]},
    {"target": "BChE from equine serum (Equus caballus, UniProt P81908)", "experiment": "biochemical", "assay_type": "biochemical", "conditions": "BChE from equine serum", "values": [
      {"smiles": "Nc1c2c(nc3cc(-c4ccoc4)ccc13)CCCC2", "note": "[Compound 212, 6-(furan-3-yl)-1,2,3,4-tetrahydroacridin-9-amine]", "IC50 values (mean ± SD) BChE": "submicromolar"},
      {"smiles": "Nc1c2c(nc3cc(-c4cccnc4)ccc13)CCCC2", "note": "[Compound 214, 6-(pyridin-3-yl)-1,2,3,4-tetrahydroacridin-9-amine]", "IC50 values (mean ± SD) BChE": "submicromolar"}
    ]},
    {"system": "AChE", "experiment": "not given", "conditions": "read-out: IC50 (AChEI); cited from earlier work", "units": {"IC50": "µM"}, "values": [
      {"smiles": "COc1ccc2c3c1O[C@H]1C[C@@H](O)C=C[C@@]31CCN(C)C2", "note": "[galantamine]", "IC50": "[…]"},
      {"smiles": "CCN(C)C(=O)Oc1cccc([C@H](C)N(C)C)c1", "note": "[rivastigmine]", "IC50": "[…]"}
    ]},
    {"target": "AChE from Electrophorus electricus (electric eel) (Electrophorus electricus, UniProt O42275)", "sequence (O42275 24-633)": "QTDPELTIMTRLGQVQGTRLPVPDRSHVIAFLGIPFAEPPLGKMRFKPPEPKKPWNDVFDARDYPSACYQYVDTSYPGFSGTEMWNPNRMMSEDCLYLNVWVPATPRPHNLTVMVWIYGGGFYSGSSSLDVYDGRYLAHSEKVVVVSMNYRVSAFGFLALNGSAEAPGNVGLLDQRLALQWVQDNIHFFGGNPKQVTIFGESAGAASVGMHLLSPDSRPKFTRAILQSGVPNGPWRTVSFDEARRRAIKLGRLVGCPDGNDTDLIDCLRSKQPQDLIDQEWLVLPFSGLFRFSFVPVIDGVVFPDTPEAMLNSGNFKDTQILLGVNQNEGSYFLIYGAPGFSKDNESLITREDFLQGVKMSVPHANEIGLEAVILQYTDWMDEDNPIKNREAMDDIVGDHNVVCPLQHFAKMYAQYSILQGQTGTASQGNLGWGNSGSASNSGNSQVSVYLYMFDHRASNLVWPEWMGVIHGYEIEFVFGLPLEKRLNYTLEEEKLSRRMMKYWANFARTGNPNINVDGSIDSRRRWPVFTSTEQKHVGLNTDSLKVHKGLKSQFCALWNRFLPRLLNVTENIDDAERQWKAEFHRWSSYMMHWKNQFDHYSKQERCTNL", "experiment": "In vitro AChE inhibition assay", "assay_type": "biochemical", "conditions": "not given", "units": {"IC50": "nM"}, "values": [
      {"smiles": "CCOC(=O)C1CCc2nc3cc(Br)ccc3c(N)c2C1", "note": "(centres unmarked) [Compound 5, Ethyl 9-amino-6-bromo-1,2,3,4-tetrahydroacridine-2-carboxylate]", "IC50": "100 ± 7.2"},
      {"smiles": "NNC(=O)C1CCc2nc3cc(Br)ccc3c(N)c2C1", "note": "(centres unmarked) [Compound 8, 9-Amino-6-bromo-1,2,3,4-tetrahydroacridine-2-carbohydrazide]", "IC50": "138 ± 16.1"},
      {"smiles": "CCOC(=O)C1CCc2nc3ccccc3c(N)c2C1", "note": "(centres unmarked) [Compound 16, ethyl 9-amino-1,2,3,4-tetrahydroacridine-2-carboxylate]", "IC50": "42.2 ± 2.7"},
      {"smiles": "NNC(=O)C1CCc2nc3ccccc3c(N)c2C1", "note": "(centres unmarked) [Compound 17, 9-amino-1,2,3,4-tetrahydroacridine-2-carbohydrazide]", "IC50": "19.3 ± 0.47"},
      {"smiles": "Nc1c2c(nc3cc(-c4ccc(C(F)(F)F)cc4)ccc13)CCCC2", "note": "[Compound 211, 6-(4-(trifluoromethyl)phenyl)-1,2,3,4-tetrahydroacridin-9-amine]", "IC50": "74.6 ± 8.29"},
      {"smiles": "Nc1c2c(nc3cc(-c4ccoc4)ccc13)CCCC2", "note": "[Compound 212, 6-(furan-3-yl)-1,2,3,4-tetrahydroacridin-9-amine]", "IC50": "53.6 ± 4.39"},
      {"smiles": "Nc1c2c(nc3cc(-c4cccnc4)ccc13)CCCC2", "note": "[Compound 214, 6-(pyridin-3-yl)-1,2,3,4-tetrahydroacridin-9-amine]", "IC50": "49.4 ± 2.37"}
    ]},
    {"system": "rat primary cortical neurons", "experiment": "Glutamate-induced excitotoxicity, MAP2 immunostaining and DAPI staining", "assay_type": "cell-based", "conditions": "DIV9 neurons, 100 µM glutamate and 10 µM glycine", "values": [
      {"smiles": "Nc1c2c(nc3cc(-c4ccc(C(F)(F)F)cc4)ccc13)CCCC2", "note": "[Compound 211, 6-(4-(trifluoromethyl)phenyl)-1,2,3,4-tetrahydroacridin-9-amine]", "condensed nuclei / viable cells (DAPI staining) after glutamate": "clear decrease in the number of condensed nuclei", "decrease in MAP2 positive cells and loss of neuronal architecture caused by glutamate": "prevented"},
      {"smiles": "C[C@]12N[C@H](Cc3ccccc31)c1ccccc12", "note": "[MK-801, reference compound]", "condensed nuclei / viable cells (DAPI staining) after glutamate": "prevented"}
    ]}
  ]
}
